According to patent publication US5817692A, “Endoperoxides useful as antiparasitic agents” (priority 1996, dated 1998):
Read-outs that look alike come from different tables or passages of the source.

What was measured:
Type in all cases: cell-based
[1] = system: Toxoplasma gondii; assay: inhibition of intracellular replication of T. gondii in infected L929 cells, uracil incorporation assay; design: Activity, Mean: unit not given here; conditions: for Activity, Mean: uracil incorporation; for inhibition at 0.1 µM / inhibition at 1 µM / inhibition at 10 µM / inhibition at 50 µM: Toxoplasma gondii, L929, read-out: Activity, % of control (inhibition)
Description: Toxoplasma gondii is the causative agent of cerebral toxoplasmic encephalitis, an AIDS-related opportunistic infection. The biological activity of the endoperoxide JHU 2886 of the present invention was measured against Toxoplasma gondii cultured in L929 cells. The inhibitory activity of the synthetic organic endoperoxide was tested by measuring the intracellular replication of T. gondii in infected L929 cells. The inhibition of the intracellular replication of T. gondii was determined using the uracil incorporation assay (20). […] This compound is referred to as JHU 2886 in Table 1. In this experiment atovaquone and artemisinin were used as positive controls. Atovaquone is a broad-spectrum anti-infective drug having antimalarial and antitoxoplasmosis activity (19). | measured using the MTT assay (Promega kit) and inhibition of the | intracellular replication of T. gondii was determined using the uracil | incorporation assay.

[2] = system: Plasmodium falciparum; assay: antimalarial activity, tritiated-hypoxanthine incorporation assay in human red blood cells; conditions: Erythrocyte, read-out: IC50 (inhibition of 50% of the replication of Plasmodium falciparum)
Description: (§1) The protozoan Plasmodium falciparum is a causative agent of malaria, the single most critical infectious disease of mankind. The antimalarial activity of the endoperoxides was determined according to the method of Desjardins et al. (16) as modified by Milhous et al. (17). Briefly, the antimalarial activity of the endoperoxides was tested in a tritiated-hypoxanthine incorporation assay by determining the concentration of the test compound needed to inhibit 50% of the replication of Plasmodium falciparum (IC50) in human red blood cells.
It is particularly noted that JHU 2886 has an excellent therapeutic index (ratio of activity to toxicity). At 1 μM, JHU 2886 has a therapeutic index of 70/0, whereas at the same concentration artimisinin has a therapeutic index of 76/10 (7.6), and atovaquone has a therapeutic index of only 95/17 (5.6). […] The first two compounds are known while the following five are being disclosed for the first time. […] Compounds of this formula wherein Ar is p-FCH2 Ph or p-HOCH2 Ph and X is CH2 are also expected to be particularly useful. […]

[3] = system: P. falciparum NF54; assay: antimalarial activity, P. falciparum NF54 parasites in vitro; conditions: Plasmodium falciparum; P. falciparum NF54 parasites in vitro; read-out: Antimalarial Activity IC50
Description: as §1
Tables 4 and 5 show the structures and antimalarial activities of unsaturated and saturated bicyclic [2.2.2] endoperoxides of the invention. Compounds of this formula wherein R and R' are identical are particularly preferred. It is expected that compounds wherein R and R' are selected from the groups [drawing 33] will be especially useful. […]

[4] = system: L929 cells; assay: cytotoxicity to L929 cells, MTT assay (viability and replication); design: Toxicity, Mean: unit not given here; conditions: L929 cells; for Toxicity, Mean: MTT; for inhibition at 0.1 µM / inhibition at 1 µM / inhibition at 10 µM / inhibition at 50 µM: Mus musculus, read-out: Toxicity, % of control (inhibition)
Description: Toxoplasma gondii is the causative agent of cerebral toxoplasmic encephalitis, an AIDS-related opportunistic infection. The biological activity of the endoperoxide JHU 2886 of the present invention was measured against Toxoplasma gondii cultured in L929 cells.
More specifically, the cytotoxicity of synthetic organic endoperoxide JHU 2886 was tested in L929 cells by measuring the viability and replication of exposed cells. The cytotoxicity of the compound to the cultured cells was measured using the MTT assay (Promega kit), according to the procedure of Carmichael et al. (18). MTT is an abbreviation for [3-(4,5-dimethylthiazol-2-yl)-2,5-dephenyltetrazolium bromide].
This compound is referred to as JHU 2886 in Table 1. In this experiment atovaquone and artemisinin were used as positive controls. Atovaquone is a broad-spectrum anti-infective drug having antimalarial and antitoxoplasmosis activity (19).
^1 The cytotoxicity of each compound for the cultured cells was
measured using the MTT assay (Promega kit) and inhibition of the […]

SMILES: C[C@@H]1CC[C@H]2[C@@H](C)C(=O)O[C@@H]3O[C@@]4(C)CC[C@@H]1[C@]32OO4 [Artemisinin]
- therapeutic index (ratio of activity to toxicity), quotient ([1]; 1 μM, T. gondii activity / L929 toxicity): 7.6
- Activity, Score ([1]; 24 hours, dose 0.1 μM): 2 (>20%-≤40%)
- Activity, Mean ([1]; 24 hours, dose 0.1 μM): 10106
- Activity, Score ([1]; 24 hours, dose 1.0 μM): 4 (>70%-≤90%)
- Activity, Mean ([1]; 24 hours, dose 1.0 μM): 3467
- Activity, Score ([1]; 24 hours, dose 10.0 μM): 4 (>70%-≤90%)
- Activity, Mean ([1]; 24 hours, dose 10.0 μM): 3470
- Activity, Score ([1]; 24 hours, dose 50.0 μM): 4 (>70%-≤90%)
- Activity, Mean ([1]; 24 hours, dose 50.0 μM): 33322
- Activity, Score ([1]; 48 hours, dose 0.1 μM): 1 (≤20%)
- Activity, Mean ([1]; 48 hours, dose 0.1 μM): 15440
- Activity, Score ([1]; 48 hours, dose 1.0 μM): 3 (>40%-≤70%)
- Activity, Mean ([1]; 48 hours, dose 1.0 μM): 6101
- Activity, Score ([1]; 48 hours, dose 10.0 μM): 4 (>70%-≤90%)
- Activity, Mean ([1]; 48 hours, dose 10.0 μM): 4225
- Activity, Score ([1]; 48 hours, dose 50.0 μM): 4 (>70%-≤90%)
- Activity, Mean ([1]; 48 hours, dose 50.0 μM): 4167
- Activity, Score ([1]; 72 hours, dose 0.1 μM): 0
- Activity, Mean ([1]; 72 hours, dose 0.1 μM): 8253
- Activity, Score ([1]; 72 hours, dose 1.0 μM): 4 (>70%-≤90%)
- Activity, Mean ([1]; 72 hours, dose 1.0 μM): 1976
- Activity, Score ([1]; 72 hours, dose 10.0 μM): 4 (>70%-≤90%)
- Activity, Mean ([1]; 72 hours, dose 10.0 μM): 783
- Activity, Score ([1]; 72 hours, dose 50.0 μM): 4 (>70%-≤90%)
- Activity, Mean ([1]; 72 hours, dose 50.0 μM): 813
- inhibition at 0.1 µM ([1]; 24 hours, dose 0.1 μM): 29.6%
- inhibition at 1 µM ([1]; 24 hours, dose 1.0 μM): 75.8%
- inhibition at 10 µM ([1]; 24 hours, dose 10.0 μM): 75.8%
- inhibition at 50 µM ([1]; 24 hours, dose 50.0 μM): 76.8%
- inhibition at 0.1 µM ([1]; 48 hours, dose 0.1 μM): 10.4%
- inhibition at 1 µM ([1]; 48 hours, dose 1.0 μM): 64.6%
- inhibition at 10 µM ([1]; 48 hours, dose 10.0 μM): 75.5%
- inhibition at 50 µM ([1]; 48 hours, dose 50.0 μM): 75.8%
- inhibition at 0.1 µM ([1]; 72 hours, dose 0.1 μM): -14.1%
- inhibition at 1 µM ([1]; 72 hours, dose 1.0 μM): 72.7%
- inhibition at 10 µM ([1]; 72 hours, dose 10.0 μM): 89.2%
- inhibition at 50 µM ([1]; 72 hours, dose 50.0 μM): 88.8%
- IC50 [2]: 11 nM
- IC50 [3]: 11 nM
- Toxicity, Score ([4]; 24 hours, dose 0.1 μM): 1 (≤20%)
- Toxicity, Mean ([4]; 24 hours, dose 0.1 μM): 0.103
- Toxicity, Score ([4]; 24 hours, dose 1.0 μM): 1 (≤20%)
- Toxicity, Mean ([4]; 24 hours, dose 1.0 μM): 0.101
- Toxicity, Score ([4]; 24 hours, dose 10.0 μM): 1 (≤20%)
- Toxicity, Mean ([4]; 24 hours, dose 10.0 μM): 0.104
- Toxicity, Score ([4]; 24 hours, dose 50.0 μM): 1 (≤20%)
- Toxicity, Mean ([4]; 24 hours, dose 50.0 μM): 0.110
- Toxicity, Mean ([4]; 48 hours, dose 0.1 μM): 0.213
- Toxicity, Score ([4]; 48 hours, dose 1.0 μM): 1 (≤20%)
- Toxicity, Mean ([4]; 48 hours, dose 1.0 μM): 0.205
- Toxicity, Score ([4]; 48 hours, dose 10.0 μM): 1 (≤20%)
- Toxicity, Mean ([4]; 48 hours, dose 10.0 μM): 0.195
- Toxicity, Score ([4]; 48 hours, dose 50.0 μM): 1 (≤20%)
- Toxicity, Mean ([4]; 48 hours, dose 50.0 μM): 0.193
- Toxicity, Mean ([4]; 72 hours, dose 0.1 μM): 0.460
- Toxicity, Score ([4]; 72 hours, dose 1.0 μM): 1 (≤20%)
- Toxicity, Mean ([4]; 72 hours, dose 1.0 μM): 0.394
- Toxicity, Score ([4]; 72 hours, dose 10.0 μM): 1 (≤20%)
- Toxicity, Mean ([4]; 72 hours, dose 10.0 μM): 0.354
- Toxicity, Score ([4]; 72 hours, dose 50.0 μM): 2 (>20%-≤40%)
- Toxicity, Mean ([4]; 72 hours, dose 50.0 μM): 0.348
- inhibition at 0.1 µM ([4]; 24 hours, dose 0.1 μM): 8.56%
- inhibition at 1 µM ([4]; 24 hours, dose 1.0 μM): 10.3%
- inhibition at 10 µM ([4]; 24 hours, dose 10.0 μM): 7.67%
- inhibition at 50 µM ([4]; 24 hours, dose 50.0 μM): 2.36%
- inhibition at 0.1 µM ([4]; 48 hours, dose 0.1 μM): 0%
- inhibition at 1 µM ([4]; 48 hours, dose 1.0 μM): 3.75%
- inhibition at 10 µM ([4]; 48 hours, dose 10.0 μM): 8.44%
- inhibition at 50 µM ([4]; 48 hours, dose 50.0 μM): 9.53%
- inhibition at 0.1 µM ([4]; 72 hours, dose 0.1 μM): 0%
- inhibition at 1 µM ([4]; 72 hours, dose 1.0 μM): 9.97%
- inhibition at 10 µM ([4]; 72 hours, dose 10.0 μM): 19.2%
- inhibition at 50 µM ([4]; 72 hours, dose 50.0 μM): 20.6%
